Consider one compound from PMC5218480 (PLoS ONE, 2017).

The test system of the experiment is MV-4-11 cells. Put plainly: Gene expression microarray analysis (Affymetrix PrimeView) and GSEA. It counts as cell-based, human. More on the design: RFU PODN (11730768_x_at) / Fold change /veh PODN (11730768_x_at) / RFU LINC00158 (11744669_a_at) / Fold change /veh LINC00158 (11744669_a_at) / RFU DUSP10 (11751237_a_at) / Fold change /veh DUSP10 (11751237_a_at) / RFU ID3 (11757404_x_at) / Fold change /veh ID3 (11757404_x_at) / RFU PLEKHG5 (11737974_s_at) / Fold change /veh PLEKHG5 (11737974_s_at) / RFU LRRC4B (11730491_at) / Fold change /veh LRRC4B (11730491_at) / RFU GIMAP4 (11747438_a_at) / Fold change /veh GIMAP4 (11747438_a_at) / RFU KRT8 (11758183_x_at) / Fold change /veh KRT8 (11758183_x_at) / RFU CNN1 (11734310_a_at) / Fold change /veh CNN1 (11734310_a_at) / RFU VPS37D (11726825_at) / Fold change /veh VPS37D (11726825_at) / RFU C10orf10 (11716522_x_at) / Fold change /veh C10orf10 (11716522_x_at) / RFU KIR2DL2 /// KIR2DL4 /// KIR2DL5A /// KIR2DL5B /// KIR2DS1 /// KIR2DS2 /// KIR2DS3 /// KIR2DS4 /// KIR3DL3 /// KIR3DL3 /// KIR3DS1 (11738374_at) / Fold change /veh KIR2DL2 /// KIR2DL4 /// KIR2DL5A /// KIR2DL5B /// KIR2DS1 /// KIR2DS2 /// KIR2DS3 /// KIR2DS4 /// KIR3DL3 /// KIR3DL3 /// KIR3DS1 (11738374_at) / RFU C1QL1 (11718748_at) / Fold change /veh C1QL1 (11718748_at) / RFU TMPRSS4 (11747572_a_at) / Fold change /veh TMPRSS4 (11747572_a_at) / RFU HAMP (11756126_x_at) / Fold change /veh HAMP (11756126_x_at) / RFU RNFT2 (11725882_a_at) / Fold change /veh RNFT2 (11725882_a_at) / RFU NR4A2 (11747474_a_at) / Fold change /veh NR4A2 (11747474_a_at) / RFU ABCC12 (11746883_a_at) / Fold change /veh ABCC12 (11746883_a_at) / RFU TMEM136 (11760407_x_at) / Fold change /veh TMEM136 (11760407_x_at) / RFU CLDN22 /// WWC2 (11732394_at) / Fold change /veh CLDN22 /// WWC2 (11732394_at) / RFU HLA-DPB1 (11760878_x_at) / Fold change /veh HLA-DPB1 (11760878_x_at) / RFU SPINT1 (11716480_a_at) / Fold change /veh SPINT1 (11716480_a_at) / RFU GAP43 (11754022_s_at) / Fold change /veh GAP43 (11754022_s_at) / RFU A4GNT (11735810_at) / Fold change /veh A4GNT (11735810_at) / RFU PRB3 (11715151_x_at) / Fold change /veh PRB3 (11715151_x_at) / RFU TUBB4B (11761932_at) / Fold change /veh TUBB4B (11761932_at) / RFU CAPN14 (11732068_a_at) / Fold change /veh CAPN14 (11732068_a_at) / RFU TMCC2 (11721928_a_at) / Fold change /veh TMCC2 (11721928_a_at) / RFU IRGQ (11745062_a_at) / Fold change /veh IRGQ (11745062_a_at) / RFU FAM174B (11720279_a_at) / Fold change /veh FAM174B (11720279_a_at) / RFU TMPRSS4 (11748680_a_at) / Fold change /veh TMPRSS4 (11748680_a_at) / RFU FAM212B (11763350_a_at) / Fold change /veh FAM212B (11763350_a_at) / RFU PLEKHG5 (11743358_a_at) / Fold change /veh PLEKHG5 (11743358_a_at) / RFU ZSCAN30 (11745921_a_at) / Fold change /veh ZSCAN30 (11745921_a_at) / RFU CMKLR1 (11741424_a_at) / Fold change /veh CMKLR1 (11741424_a_at) / RFU LOC101060620 /// MAPK8IP1 (11723275_at) / Fold change /veh LOC101060620 /// MAPK8IP1 (11723275_at) / RFU SPTSSB (11747773_x_at) / Fold change /veh SPTSSB (11747773_x_at) / RFU PRSS12 (11739890_at) / Fold change /veh PRSS12 (11739890_at) / RFU BIN1 (11741810_x_at) / Fold change /veh BIN1 (11741810_x_at) / RFU WNT11 (11732464_a_at) / Fold change /veh WNT11 (11732464_a_at) / RFU C10orf10 (11716521_a_at) / Fold change /veh C10orf10 (11716521_a_at) / RFU C5orf56 (11738089_at) / Fold change /veh C5orf56 (11738089_at) / RFU CYB561 (11721691_x_at) / Fold change /veh CYB561 (11721691_x_at) / RFU ANKRD19P (11752326_a_at) / Fold change /veh ANKRD19P (11752326_a_at) / RFU OR2T12 /// OR2T33 /// OR2T8 (11738714_s_at) / Fold change /veh OR2T12 /// OR2T33 /// OR2T8 (11738714_s_at) / RFU VCAN (11748164_a_at) / Fold change /veh VCAN (11748164_a_at) / RFU JSRP1 (11732532_at) / Fold change /veh JSRP1 (11732532_at) / RFU KRTAP10-11 (11738290_x_at) / Fold change /veh KRTAP10-11 (11738290_x_at) / RFU MYO3A (11730013_a_at) / Fold change /veh MYO3A (11730013_a_at) / RFU EBF3 (11725865_a_at) / Fold change /veh EBF3 (11725865_a_at) / RFU CAMK2N1 (11719241_x_at) / Fold change /veh CAMK2N1 (11719241_x_at) / RFU C5orf56 (11738088_a_at) / Fold change /veh C5orf56 (11738088_a_at) / RFU OLFML3 (11715873_a_at) / Fold change /veh OLFML3 (11715873_a_at) / RFU LOC100653217 /// NTM (11731650_a_at) / Fold change /veh LOC100653217 /// NTM (11731650_a_at) / RFU MAPK11 (11762145_a_at) / Fold change /veh MAPK11 (11762145_a_at) / RFU FIZ1 (11724087_x_at) / Fold change /veh FIZ1 (11724087_x_at) / RFU OASL (11726364_x_at) / Fold change /veh OASL (11726364_x_at) / RFU SOX15 (11748057_x_at) / Fold change /veh SOX15 (11748057_x_at) / RFU CD79A (11719716_a_at) / Fold change /veh CD79A (11719716_a_at) / RFU HIST1H1D (11736915_at) / Fold change /veh HIST1H1D (11736915_at) / RFU CASKIN2 (11723855_a_at) / Fold change /veh CASKIN2 (11723855_a_at) / RFU LOC730098 (11760151_x_at) / Fold change /veh LOC730098 (11760151_x_at) / RFU OR4N2 (11742367_at) / Fold change /veh OR4N2 (11742367_at) / RFU PRRT2 (11749266_a_at) / Fold change /veh PRRT2 (11749266_a_at) / RFU SNX32 (11753110_a_at) / Fold change /veh SNX32 (11753110_a_at) / RFU CDHR5 (11726645_a_at) / Fold change /veh CDHR5 (11726645_a_at) / RFU RCAN1 (11760418_a_at) / Fold change /veh RCAN1 (11760418_a_at) / RFU FAM167A (11723789_a_at) / Fold change /veh FAM167A (11723789_a_at) / RFU FAM26E (11764081_at) / Fold change /veh FAM26E (11764081_at) / RFU ISYNA1 (11749810_s_at) / Fold change /veh ISYNA1 (11749810_s_at) / RFU ACY1 (11761880_at) / Fold change /veh ACY1 (11761880_at) / RFU 11764098_at / Fold change /veh 11764098_at / RFU SAMD14 (11745864_x_at) / Fold change /veh SAMD14 (11745864_x_at) / RFU NPB (11741838_a_at) / Fold change /veh NPB (11741838_a_at) / RFU TMPRSS6 (11731388_a_at) / Fold change /veh TMPRSS6 (11731388_a_at) / RFU KRTAP10-2 (11738614_at) / Fold change /veh KRTAP10-2 (11738614_at) / RFU ARHGAP8 /// PRR5-ARHGAP8 (11727945_x_at) / Fold change /veh ARHGAP8 /// PRR5-ARHGAP8 (11727945_x_at) / RFU KRTAP5-7 /// NADSYN1 (11734609_at) / Fold change /veh KRTAP5-7 /// NADSYN1 (11734609_at) / RFU RASL12 (11751679_a_at) / Fold change /veh RASL12 (11751679_a_at) / RFU CDKN2B (11736163_a_at) / Fold change /veh CDKN2B (11736163_a_at) / RFU PRF1 (11729649_at) / Fold change /veh PRF1 (11729649_at) / RFU, ZNF638 /// ZNF638-IT1 / Fold change vs veh, ZNF638 /// ZNF638-IT1 / RFU, PANK3 / Fold change vs veh, PANK3 / RFU, SH3YL1 / Fold change vs veh, SH3YL1 / RFU, ZEB2 / Fold change vs veh, ZEB2 / RFU, NRIP1 / Fold change vs veh, NRIP1 / RFU, PTTG1IP / Fold change vs veh, PTTG1IP / RFU, CAPN2 / Fold change vs veh, CAPN2 / RFU, MED14 / Fold change vs veh, MED14 / RFU, SNORA58 / Fold change vs veh, SNORA58 / RFU, C1orf63 / Fold change vs veh, C1orf63 / RFU, LRRFIP1 / Fold change vs veh, LRRFIP1 / RFU, NDUFAF7 / Fold change vs veh, NDUFAF7 / RFU, SLC12A2 / Fold change vs veh, SLC12A2 / RFU, IBTK / Fold change vs veh, IBTK / RFU, ESF1 / Fold change vs veh, ESF1 / Fold change vs veh, TMEM50B / RFU, TAOK1 / Fold change vs veh, TAOK1 / RFU, ACBD3 / Fold change vs veh, ACBD3 / RFU, TMA16 / Fold change vs veh, TMA16 / RFU, RWDD3 / Fold change vs veh, RWDD3 / RFU, BCAT1 / Fold change vs veh, BCAT1 / RFU, EDEM3 / Fold change vs veh, EDEM3 / RFU, TMEM33 / Fold change vs veh, TMEM33 / RFU, WDR75 / Fold change vs veh, WDR75 / RFU, AHCTF1 / Fold change vs veh, AHCTF1 / RFU, TFRC / Fold change vs veh, TFRC / RFU, ZDHHC17 / Fold change vs veh, ZDHHC17 / RFU, NOM1 / Fold change vs veh, NOM1 / RFU, ARL8B / Fold change vs veh, ARL8B / RFU, ZBTB11 / Fold change vs veh, ZBTB11 / RFU, TAMM41 / Fold change vs veh, TAMM41 / RFU, KIAA1704 /// LOC100996395 / Fold change vs veh, KIAA1704 /// LOC100996395 / RFU, ING1 / Fold change vs veh, ING1 / RFU, TRMT61B / Fold change vs veh, TRMT61B / RFU, FUBP3 / Fold change vs veh, FUBP3 / RFU, TP53 / Fold change vs veh, TP53 / RFU, TNKS2 / Fold change vs veh, TNKS2 / RFU, ZFP14 / Fold change vs veh, ZFP14 / RFU, ACTR2 / Fold change vs veh, ACTR2 / RFU, PPP3R1 / Fold change vs veh, PPP3R1 / RFU, PIK3R1 / Fold change vs veh, PIK3R1 / RFU, HNRNPA1 / Fold change vs veh, HNRNPA1 / RFU, RNF170 / Fold change vs veh, RNF170 / RFU, ZNF28 / Fold change vs veh, ZNF28 / RFU, RNGTT / Fold change vs veh, RNGTT / RFU, OGT / Fold change vs veh, OGT / RFU, BRD1 / Fold change vs veh, BRD1 / RFU, MARS / Fold change vs veh, MARS / RFU, ZNF655 / Fold change vs veh, ZNF655 / RFU, FAHD1 / Fold change vs veh, FAHD1 / RFU, BDP1 / Fold change vs veh, BDP1 / RFU, LRRCC1 / Fold change vs veh, LRRCC1 / RFU, ARID1A / Fold change vs veh, ARID1A / RFU, ZNF146 / Fold change vs veh, ZNF146 / RFU, ZNF330 / Fold change vs veh, ZNF330 / RFU, GPN3 / Fold change vs veh, GPN3 / RFU, C9orf123 / Fold change vs veh, C9orf123 / RFU, N4BP2L2 / Fold change vs veh, N4BP2L2 / RFU, ARFIP1 / Fold change vs veh, ARFIP1 / RFU, FAM179B / Fold change vs veh, FAM179B / RFU, BCL10 / Fold change vs veh, BCL10 / RFU, UHRF1BP1L / Fold change vs veh, UHRF1BP1L / RFU, BET1 / Fold change vs veh, BET1 / RFU, CNOT2 / Fold change vs veh, CNOT2 / RFU, ZNF268 / Fold change vs veh, ZNF268 / Fold change vs veh, ZNF507 / RFU, DGCR2 / Fold change vs veh, DGCR2 / RFU, WDSUB1 / Fold change vs veh, WDSUB1 / Fold change vs veh, HSP90B1 /// MIR3652 / RFU, ADSS / Fold change vs veh, ADSS / RFU, GK / Fold change vs veh, GK / RFU, ZNF148 / Fold change vs veh, ZNF148 / RFU, TAF9 / Fold change vs veh, TAF9 / RFU, SLC1A5 / Fold change vs veh, SLC1A5 / RFU, SLMO2 / Fold change vs veh, SLMO2 / RFU, ABCC4 / Fold change vs veh, ABCC4 / RFU, LOC101060439 /// RAP1B / Fold change vs veh, LOC101060439 /// RAP1B / RFU, RFX7 / Fold change vs veh, RFX7 / RFU, GTPBP10 / Fold change vs veh, GTPBP10 / RFU, CNEP1R1 / Fold change vs veh, CNEP1R1 / RFU, BIVM-ERCC5 /// ERCC5 / Fold change vs veh, BIVM-ERCC5 /// ERCC5 / RFU, ILF3 / Fold change vs veh, ILF3 / RFU 11762660_at / Fold change /veh 11762660_at / RFU VCAN (11757783_s_at) / Fold change /veh VCAN (11757783_s_at) / RFU DDX43 (11728927_at) / Fold change /veh DDX43 (11728927_at) / RFU KRT8 (11758188_x_at) / Fold change /veh KRT8 (11758188_x_at) / RFU NKD1 (11759106_at) / Fold change /veh NKD1 (11759106_at) / RFU SRD5A1 (11742802_a_at) / Fold change /veh SRD5A1 (11742802_a_at) / RFU TPSAB1 /// TPSB2 (11721975_s_at) / Fold change /veh TPSAB1 /// TPSB2 (11721975_s_at) / RFU GSTM3 (11746129_a_at) / Fold change /veh GSTM3 (11746129_a_at) / RFU IL23R (11737362_x_at) / Fold change /veh IL23R (11737362_x_at) / RFU TMEM51 (11727254_a_at) / Fold change /veh TMEM51 (11727254_a_at) / RFU PIWIL2 (11732686_x_at) / Fold change /veh PIWIL2 (11732686_x_at) / RFU ORM1 (11744905_x_at) / Fold change /veh ORM1 (11744905_x_at) / RFU CCDC152 (11743942_at) / Fold change /veh CCDC152 (11743942_at) / RFU ECM1 (11717891_a_at) / Fold change /veh ECM1 (11717891_a_at) / RFU IL23R (11748794_a_at) / Fold change /veh IL23R (11748794_a_at) / RFU TNFAIP8L3 (11732012_x_at) / Fold change /veh TNFAIP8L3 (11732012_x_at) / RFU MBOAT4 (11741988_at) / Fold change /veh MBOAT4 (11741988_at) / RFU 11764193_at / Fold change /veh 11764193_at / RFU TMEM53 (11763286_at) / Fold change /veh TMEM53 (11763286_at) / RFU MAGEB2 (11727129_at) / Fold change /veh MAGEB2 (11727129_at) / RFU TMEM200A (11744735_a_at) / Fold change /veh TMEM200A (11744735_a_at) / RFU CCDC152 (11751479_a_at) / Fold change /veh CCDC152 (11751479_a_at) / RFU FAM211A (11726209_a_at) / Fold change /veh FAM211A (11726209_a_at) / RFU RGS16 (11746705_a_at) / Fold change /veh RGS16 (11746705_a_at) / RFU VCAN (11755009_s_at) / Fold change /veh VCAN (11755009_s_at) / RFU RHOB (11743442_s_at) / Fold change /veh RHOB (11743442_s_at) / RFU RGS16 (11720943_a_at) / Fold change /veh RGS16 (11720943_a_at) / RFU RGS16 (11720944_at) / Fold change /veh RGS16 (11720944_at) / RFU, VPS4B / Fold change vs veh, VPS4B / RFU, CREB1 / Fold change vs veh, CREB1 / RFU, DNAJC13 / Fold change vs veh, DNAJC13 / RFU, GNAQ / Fold change vs veh, GNAQ / RFU, CDK5R1 / Fold change vs veh, CDK5R1 / RFU, ZRANB3 / Fold change vs veh, ZRANB3 / RFU, CUL4A / Fold change vs veh, CUL4A / RFU, CCNY / Fold change vs veh, CCNY / RFU, UFL1 / Fold change vs veh, UFL1 / RFU, COG3 / Fold change vs veh, COG3 / RFU, DIAPH2 / Fold change vs veh, DIAPH2 / RFU, SKA2 / Fold change vs veh, SKA2 / RFU, AFF3 / Fold change vs veh, AFF3 / RFU, LMF1 / Fold change vs veh, LMF1 / RFU, IPO11 / Fold change vs veh, IPO11 / RFU, DFFB / Fold change vs veh, DFFB / RFU, FOXP1 / Fold change vs veh, FOXP1 / RFU, CARD8 / Fold change vs veh, CARD8 / RFU, STRN3 / Fold change vs veh, STRN3 / RFU, ADK / Fold change vs veh, ADK / RFU, RASSF2 / Fold change vs veh, RASSF2 / RFU, WIPF1 / Fold change vs veh, WIPF1 / RFU, LARP1B / Fold change vs veh, LARP1B / RFU, RASA1 / Fold change vs veh, RASA1 / RFU, RB1 / Fold change vs veh, RB1 / RFU, PPFIA1 / Fold change vs veh, PPFIA1 / RFU, MAT2A / Fold change vs veh, MAT2A / RFU, CCT5 / Fold change vs veh, CCT5 / RFU, WDR92 / Fold change vs veh, WDR92 / RFU, CUX1 / Fold change vs veh, CUX1 / RFU, TTC7A / Fold change vs veh, TTC7A / RFU, TMEM135 / Fold change vs veh, TMEM135 / RFU, DEPTOR / Fold change vs veh, DEPTOR / RFU, CPM / Fold change vs veh, CPM / RFU, DNAJB6 / Fold change vs veh, DNAJB6 / RFU, CACNA2D3 / Fold change vs veh, CACNA2D3 / RFU, DTX4 / Fold change vs veh, DTX4 / RFU, TFCP2 / Fold change vs veh, TFCP2 / RFU, GMCL1 /// GMCL1P1 / Fold change vs veh, GMCL1 /// GMCL1P1 / RFU, AEBP2 / Fold change vs veh, AEBP2 / RFU, SNHG1 /// SNORD22 /// SNORD25 /// SNORD26 /// SNORD27 /// SNORD28 /// SNORD29 /// SNORD31 / Fold change vs veh, SNHG1 /// SNORD22 /// SNORD25 /// SNORD26 /// SNORD27 /// SNORD28 /// SNORD29 /// SNORD31 / Fold change (Aza/veh), C12orf56 (ProbeSet 11735607_a_at) / Fold change (ACY-1035/veh), C12orf56 (ProbeSet 11735607_a_at) / Fold change (Aza/veh), FGFR1OP (ProbeSet 11751329_s_at) / Fold change (ACY-1035/veh), FGFR1OP (ProbeSet 11751329_s_at) / Fold change (Aza/veh), VPS36 (ProbeSet 11739960_a_at) / Fold change (ACY-1035/veh), VPS36 (ProbeSet 11739960_a_at) / RFU SYPL1 (11715823_x_at) / Fold change /veh SYPL1 (11715823_x_at) / RFU IGFBP7 (11715501_s_at) / Fold change /veh IGFBP7 (11715501_s_at) / RFU REEP3 (11722064_at) / Fold change /veh REEP3 (11722064_at) / RFU IGLL1 (11728026_x_at) / Fold change /veh IGLL1 (11728026_x_at): dose or concentration left out as unconfirmed. The following applies: MV-4-11 cells, 48 hours.

In the case of `Nc1ccc(-c2cccs2)cc1NC(=O)c1ccc2c(c1)cc(C1CC1)n2CCN1CCOCC1` [ACY-1035], the “RFU PIWIL2 (11732686_x_at)” value came out at 9.71 RFU.
